Test results reported in ChEMBL document CHEMBL5390317, “Novel Indane-Containing NBTIs with Potent Anti-Gram-Negative Activity and Minimal hERG Inhibition” (ACS Med Chem Lett, 2023).
pIC50: −log10 of the molar value. Values after ≈ are worked out from the molar mass of the structure shown.

Assays:
[1] = test system: Acinetobacter baumannii; assay: Antibacterial activity against Acinetobacter baumannii ATCC 51432 assessed as inhibition in bacterial growth incubated for 20 to 24 hrs by CLSI based broth microdilution method; assay type: functional; settings: Acinetobacter baumannii, ATCC 51432, time 20-24 hrs; read-out: MIC
[2] = test system: Acinetobacter baumannii; assay: Antibacterial activity against Acinetobacter baumannii ATCC BAA-747 assessed as inhibition in bacterial growth incubated for 20 to 24 hrs by CLSI based broth microdilution method; assay type: functional; settings: Acinetobacter baumannii, ATCC BAA-747, time 20-24 hrs; read-out: MIC
[3] = test system: Pseudomonas aeruginosa; assay: Antibacterial activity against Pseudomonas aeruginosa NCTC 13437 assessed as inhibition in bacterial growth incubated for 20 to 24 hrs by CLSI based broth microdilution method; assay type: functional; settings: Pseudomonas aeruginosa, NCTC 13437, time 20-24 hrs; read-out: MIC
[4] = test system: Staphylococcus aureus; assay: Antibacterial activity against Staphylococcus aureus ATCC 29213 assessed as inhibition in bacterial growth incubated for 20 to 24 hrs by CLSI based broth microdilution method; assay type: functional; settings: Staphylococcus aureus, ATCC 29213; time 20-24 hrs; read-out: MIC
[5] = test system: Klebsiella pneumoniae; assay: Antibacterial activity against Klebsiella pneumoniae ATCC 700603 assessed as inhibition in bacterial growth incubated for 20 to 24 hrs by CLSI based broth microdilution method; assay type: functional; settings: Klebsiella pneumoniae, ATCC 700603, time 20-24 hrs; read-out: MIC
[6] = Stability in mouse plasma; assay type: ADME, cell-free
[7] = Inhibition of Escherichia coli topoisomerase 4 incubated for 120 mins by Transcreener ADP2 FI assay
[8] = test system: Acinetobacter baumannii; assay: Antibacterial activity against Acinetobacter baumannii ATCC 19606 assessed as inhibition in bacterial growth incubated for 20 to 24 hrs by CLSI based broth microdilution method; assay type: functional; settings: time 20-24 hrs
[9] = Stability in rat plasma; assay type: ADME, cell-free
[10] = test system: Pseudomonas aeruginosa; assay: Antibacterial activity against Pseudomonas aeruginosa ATCC 27853 assessed as inhibition in bacterial growth incubated for 20 to 24 hrs by CLSI based broth microdilution method; assay type: functional; settings: time 20-24 hrs
[11] = target: T1, hERG (KCNH2) (Homo sapiens, UniProt Q12809); assay: Inhibition of hERG potassium channel expressed in CHO cells at 10 uM by electrophysiological patch clamp assay relative to control; assay type: toxicity, cell-based; settings: CHO cells expressing hERG
T1 sequence (Q12809 whole entry): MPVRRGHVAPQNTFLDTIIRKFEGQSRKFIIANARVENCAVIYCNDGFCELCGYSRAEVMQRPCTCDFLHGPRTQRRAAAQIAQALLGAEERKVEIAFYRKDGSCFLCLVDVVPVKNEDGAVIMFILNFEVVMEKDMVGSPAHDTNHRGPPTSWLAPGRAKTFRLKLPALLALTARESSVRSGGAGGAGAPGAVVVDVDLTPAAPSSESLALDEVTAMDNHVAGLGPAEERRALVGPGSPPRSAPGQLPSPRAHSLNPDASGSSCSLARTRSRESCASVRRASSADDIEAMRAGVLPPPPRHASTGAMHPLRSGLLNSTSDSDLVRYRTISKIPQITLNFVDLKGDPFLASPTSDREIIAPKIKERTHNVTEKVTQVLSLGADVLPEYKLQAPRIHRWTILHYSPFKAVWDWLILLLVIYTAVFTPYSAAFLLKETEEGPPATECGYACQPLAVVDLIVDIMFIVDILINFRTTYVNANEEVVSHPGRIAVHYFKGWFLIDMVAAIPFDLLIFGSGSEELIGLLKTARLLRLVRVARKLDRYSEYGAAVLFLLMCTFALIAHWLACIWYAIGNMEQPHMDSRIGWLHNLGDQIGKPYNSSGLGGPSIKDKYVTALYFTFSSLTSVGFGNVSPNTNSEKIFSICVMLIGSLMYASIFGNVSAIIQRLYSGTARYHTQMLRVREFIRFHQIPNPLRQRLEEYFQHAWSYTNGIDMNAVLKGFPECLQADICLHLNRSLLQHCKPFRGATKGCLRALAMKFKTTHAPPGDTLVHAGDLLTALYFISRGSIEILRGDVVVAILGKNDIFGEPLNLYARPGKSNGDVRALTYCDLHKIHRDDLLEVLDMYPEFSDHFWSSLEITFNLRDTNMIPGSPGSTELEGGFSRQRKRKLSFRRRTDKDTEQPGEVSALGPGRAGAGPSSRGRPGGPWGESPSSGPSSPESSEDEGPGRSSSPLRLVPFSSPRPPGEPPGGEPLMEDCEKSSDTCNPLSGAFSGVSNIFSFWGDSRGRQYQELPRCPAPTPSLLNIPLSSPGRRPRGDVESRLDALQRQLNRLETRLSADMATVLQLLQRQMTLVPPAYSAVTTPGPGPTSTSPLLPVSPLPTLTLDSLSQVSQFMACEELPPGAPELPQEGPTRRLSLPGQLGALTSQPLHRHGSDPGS

[12] = test system: Klebsiella pneumoniae; assay: Antibacterial activity against Klebsiella pneumoniae ATCC 10031 assessed as inhibition in bacterial growth incubated for 20 to 24 hrs by CLSI based broth microdilution method; assay type: functional; settings: time 20-24 hrs
[13] = test system: Escherichia coli; assay: Antibacterial activity against Escherichia coli K-12 BW25113 deltaTolC assessed as inhibition in bacterial growth incubated for 20 to 24 hrs by CLSI based broth microdilution method; assay type: functional; settings: time 20-24 hrs
[14] = test system: Escherichia coli; assay: Antibacterial activity against Escherichia coli ATCC BAA-2340 assessed as inhibition in bacterial growth incubated for 20 to 24 hrs by CLSI based broth microdilution method; assay type: functional; settings: Escherichia coli, ATCC BAA-2340, time 20-24 hrs; read-out: MIC
[15] = target: DNA gyrase (Escherichia coli, UniProt P0AES4+P0AES6); assay: Inhibition of Escherichia coli DNA gyrase incubated for 80 mins by Transcreener ADP2 FI assay; assay type: protein-complex assay
[16] = test system: Klebsiella pneumoniae; assay: Antibacterial activity against Klebsiella pneumoniae ATCC BAA-1705 assessed as inhibition in bacterial growth incubated for 20 to 24 hrs by CLSI based broth microdilution method; assay type: functional; settings: time 20-24 hrs
[17] = target: T1, hERG (KCNH2); assay: Inhibition of hERG potassium channel expressed in CHO cells at 1 uM by electrophysiological patch clamp assay relative to control; assay type: toxicity, cell-based; settings: CHO cells expressing hERG
[18] = test system: Escherichia coli; assay: Antibacterial activity against Escherichia coli K-12 BW25113 assessed as inhibition in bacterial growth incubated for 20 to 24 hrs by CLSI based broth microdilution method; assay type: functional; settings: Escherichia coli, K-12 BW25113, time 20-24 hrs; read-out: MIC
[19] = Stability in human plasma; assay type: ADME, cell-free
[20] = test system: Escherichia coli; assay: Antibacterial activity against Escherichia coli ATCC 35218 assessed as inhibition in bacterial growth incubated for 20 to 24 hrs by CLSI based broth microdilution method; assay type: functional; settings: Escherichia coli, ATCC 35218, time 20-24 hrs; read-out: MIC
[21] = test system: Pseudomonas aeruginosa; assay: Antibacterial activity against Pseudomonas aeruginosa NCTC 11451 assessed as inhibition in bacterial growth incubated for 20 to 24 hrs by CLSI based broth microdilution method; assay type: functional; settings: Pseudomonas aeruginosa, NCTC 11451, time 20-24 hrs; read-out: MIC
[22] = test system: Escherichia coli; assay: Antibacterial activity against Escherichia coli ATCC 25922 assessed as inhibition in bacterial growth incubated for 20 to 24 hrs by CLSI based broth microdilution method; assay type: functional; settings: time 20-24 hrs
[23] = target: T1, hERG (KCNH2); assay: (§1) Inhibition of hERG potassium channel expressed in CHO cells by electrophysiological patch clamp assay; assay type: toxicity, cell-based; settings: human, CHO cells expressing hERG
[24] = target: Voltage-gated inwardly rectifying potassium channel KCNH2 (Homo sapiens, UniProt Q12809); assay: as §1; assay type: toxicity, cell-based
Voltage-gated inwardly rectifying potassium channel KCNH2, sequence (Q12809 whole entry): as above

[25] = test system: Staphylococcus aureus; assay: Antibacterial activity against Staphylococcus aureus ATCC BAA-1556 assessed as inhibition in bacterial growth incubated for 20 to 24 hrs by CLSI based broth microdilution method; assay type: functional; settings: Staphylococcus aureus, ATCC BAA-1556, time 20-24 hrs; read-out: MIC
[26] = test system: Klebsiella pneumoniae; assay: Antibacterial activity against Klebsiella pneumoniae ATCC BAA-2146 assessed as inhibition in bacterial growth incubated for 20 to 24 hrs by CLSI based broth microdilution method; assay type: functional; settings: Klebsiella pneumoniae, ATCC BAA-2146, time 20-24 hrs; read-out: MIC
[27] = Lipophilicity, log D of compound at pH 7.4; assay type: physicochemical; settings: buffer

| SMILES | MIC [1] [µg/mL] | MIC [2] [µg/mL] | MIC [3] [µg/mL] | MIC [4] [µg/mL] | MIC [5] [µg/mL] | Stability [6] | pIC50 [7] | MIC [8] [µg/mL] | MIC [10] [µg/mL] | MIC [12] [µg/mL] | MIC [13] [µg/mL] | MIC [14] [µg/mL] | pIC50 [15] | MIC [16] [µg/mL] | MIC [18] [µg/mL] | MIC [20] [µg/mL] | MIC [21] [µg/mL] | MIC [22] [µg/mL] | MIC [25] [µg/mL] | MIC [26] [µg/mL] | further results |
| --- | --- | --- | --- | --- | --- | --- | --- | --- | --- | --- | --- | --- | --- | --- | --- | --- | --- | --- | --- | --- | --- |
| CN(C)C(C)(C)C(=O)Nc1cc(F)c2c(c1)CC(CNCCC1CN(c3cnc4c(n3)NC(=O)CO4)C(=O)O1)C2 (configuration not stated) | 4 (≈ 7.2 µM) | ≤ 0.06 | 4 (≈ 7.2 µM) | ≤ 0.06 | 4 (≈ 7.2 µM) | Stable | 7.89 | 2 (≈ 3.6 µM) | 1 (≈ 1.8 µM) | ≤ 0.06 | ≤ 0.06 | 0.25 (≈ 0.45 µM) | 7.37 | 2 (≈ 3.6 µM) | ≤ 0.06 | 0.25 (≈ 0.45 µM) | 4 (≈ 7.2 µM) | 0.125 (≈ 0.225 µM) | 0.25 (≈ 0.45 µM) | 4 (≈ 7.2 µM) | Stability [9]: Stable; inhibition at 10 µM [11]: 57%; inhibition at 1 µM [17]: 5%; Stability [19]: Stable; IC20 [23]: 3000 nM; pIC50 [24]: 5.09 |
| CC(N)COc1cc(F)c2c(c1)CC(CCOCC1CN(c3cnc4c(n3)NC(=O)CO4)C(=O)O1)C2 (configuration not stated) | 8 (≈ 16 µM) | 4 (≈ 7.98 µM) | 32 (≈ 63.8 µM) | 0.25 (≈ 0.498 µM) | 64 (≈ 128 µM) | – | 7.57 | 8 (≈ 16 µM) | 8 (≈ 16 µM) | 0.125 (≈ 0.249 µM) | ≤ 0.06 | 16 (≈ 31.9 µM) | 6.77 | 64 (≈ 128 µM) | 4 (≈ 7.98 µM) | 8 (≈ 16 µM) | 64 (≈ 128 µM) | 8 (≈ 16 µM) | 1 (≈ 1.99 µM) | 64 (≈ 128 µM) | logD [27]: 0.22 |
| C[C@H](C(=O)Nc1cc(F)c2c(c1)CC(CNCCC1CN(c3cnc4c(n3)NC(=O)CO4)C(=O)O1)C2)N(C)C (stereo in doubt; 2e) | 8 (≈ 14.8 µM) | 0.125 (≈ 0.231 µM) | 2 (≈ 3.69 µM) | 0.25 (≈ 0.462 µM) | 2 (≈ 3.69 µM) | Stable | 8.10 | 4 (≈ 7.39 µM) | 1 (≈ 1.85 µM) | ≤ 0.06 | ≤ 0.06 | 0.25 (≈ 0.462 µM) | 7.42 | 2 (≈ 3.69 µM) | ≤ 0.06 | 0.25 (≈ 0.462 µM) | 2 (≈ 3.69 µM) | 0.125 (≈ 0.231 µM) | 0.5 (≈ 0.923 µM) | 16 (≈ 29.5 µM) | Stability [9]: Stable; inhibition at 10 µM [11]: < 1%; inhibition at 1 µM [17]: < 1%; Stability [19]: Stable; pIC50 [24]: < 4.70; IC20 ([24]; human, cho): > 10000 nM |
